The values below come from patent US20180333379A1 (priority 2018, published 2018).

For data set [1] the following is noted: cited from earlier work.
The target in a further data set is T1, β-amyloid peptide(1-40) (Homo sapiens, UniProt P05067).
T1 construct: when incubated with β-amyloid peptide(1-40); (Park, Kim, Son, & Yang, 2009)
The conditions noted are these: cited from earlier work.

The subject of another data set is neurons. Conditions: cited from earlier work.
For data set [2] the following is noted: 280-310 milliosmoles per liter, pH 6-8, animal preparation; cited from earlier work.
The target in data set [3] is T2, amyloid β peptide(1-40) aggregates (Homo sapiens, UniProt P05067).
T2 construct: amyloid β peptide(1-40) (Abcam, Cambridge, United Kingdom); purchased Abcam, Cambridge, United Kingdom
Briefly: Citrate treatment of amyloid β peptide(1-40) aggregates (thioflavin T fluorescence microscopy). The format is biochemical. The conditions noted are these: 48 hours, 37° C. How it is done: (§1) In the following experiments, the concentration of thioflavin T was thirty micromolar in phosphate buffered saline (PBS), and the staining time was five minutes.
(§2) In the following experiments, an […] observer interpreted fluorescence. Interpretation of microscopic fluorescence intensity may be subject to bias. Staining times and washes were controlled.
A precipitate formed and the sample was centrifuged at 1500 rpm for five minutes. […] Then, five microliters of thioflavin T were added to each sample, and after five minutes, the samples were centrifuged at 1500 rpm for five minutes and washed twice with PBS. Aggregates in the micro centrifuge tubes were aspirated and observed under an epifluorescent microscope with B2 filter. (Table 3)

Data set [4] deals with T3, β-2-microglobulin aggregates (Homo sapiens, UniProt P61769).
T3 construct: purchased Lee Biosolutions, Maryland Heights, Mo
Briefly: Citrate treatment of β-2-microglobulin aggregates (thioflavin T fluorescence microscopy). The format is biochemical. Conditions: 2 weeks, thioflavin T stain. The method, then: as §1, §2
One milliliter of β-2-microglobulin (Lee Biosolutions, Maryland Heights, Mo.) at a concentration of 1 mg/0.5 ml were mixed with two milliliters of 10 mM calcium chloride in normal saline at 37° C. for three weeks, and a precipitate formed. […] The precipitate was aspirated and stained with 10 microliters of thioflavin T, washed twice with phosphate bufferd saline (PBS), and each sample was observed under an epifluorescent microscope with B2 filter (excitation filter, 450-490 nm; barrier filter, 520 nm). (Table 1)

The target of the next data set is alpha synuclein (Homo sapiens, UniProt P37840). The conditions noted are these: 10 mM calcium chloride in PBS, 37° C., four weeks. The method, then: Five hundred micrograms of alpha synuclein (rPeptide, LLC, Athens, Ga.) was dissolved in 400 microliters of 10 mM calcium chloride in PBS and incubated at 37° C. for four weeks.

T3 sequence (P61769 21-119): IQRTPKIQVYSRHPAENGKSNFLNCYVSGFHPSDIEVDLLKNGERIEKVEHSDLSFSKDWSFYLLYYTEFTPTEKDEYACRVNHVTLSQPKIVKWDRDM
T2 sequence (P05067 672-711 limits assumed): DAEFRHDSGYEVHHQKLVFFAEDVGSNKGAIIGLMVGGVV
T1 sequence (P05067 672-711 limits assumed): as above

`O=C(O)CC(O)(CC(=O)O)C(=O)O` [Citrate]: in data set [1] (in vivo), the “Blood brain barrier crossing” value was “freely crosses the blood brain barrier” and the “Cerebral spinal fluid to plasma concentration of citrate” value was “approximately two-three to one”. For the same molecule, in data set [1] (normal volunteers), the “Average CSF concentration” value is recorded as 0.18 mM and the “Average plasma citrate concentration” value is on record as 0.09 mM. In addition, in data set [1] (patients with cerebrovascular disorders), the CSF citrate concentration is recorded as not above 0.3 mM. Further, the “Formation of amyloid-like aggregates” value on β-amyloid peptide(1-40) is “inhibit formation of amyloid-like aggregates”. Moreover, the “Protection of neurons from apoptotic effects of β-amyloid peptide(1-40)” value with neurons is “protect neurons from the apoptotic effects”.
As for `O=C([O-])CC(O)(CC(=O)[O-])C(=O)[O-].[Na+].[Na+].[Na+]` [Sodium citrate, sodium citrate], the “Effect on vertebral bone weight” value in data set [2] is on record as “decreased vertebral bone weight”. In data set [2], the “Effect on weight of ligamentum flavum, dura mater, and spinal cord” value is “minimal effect”. Besides, the “Thioflavin T fluorescence” value is “Present” in data set [3] (sodium citrate 0.01 mM in PBS), “Present” in data set [3] (sodium citrate 0.10 mM in PBS), “Minimally present” in data set [3] (sodium citrate 1.00 mM in PBS) and “Absent” in data set [3] (sodium citrate 10.00 mM in PBS). Further, the “Presence of fluorescent fibrils” value in data set [4] (sodium citrate 0.01 mM) is on record as “Present”; in data set [4] (sodium citrate 0.1 mM), “Present”; in data set [4] (sodium citrate 10 mM), “Absent”; in data set [4] (sodium citrate 100 mM), “Absent”; in data set [4] (sodium citrate 1M), “Present”.
For `[Ca+2].[Cl-].[Cl-]` [calcium chloride], on alpha synuclein, the Precipitate formation entry is listed as “No precipitate formed”.
